Measurements as given in patent publication US10301280B2 (Plexxikon Inc., priority 2012, dated 2019).

target: c-kit kinase (Homo sapiens (Human), UniProt P10721); experiment: c-Kit biochemical assay (AlphaScreen); conditions: c-kit biochemical inhibitory activity
In short: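 AlphaScreen of biotin-(E4Y)3 (100 nM) phosphorylation by c-kit (0.1 ng) in HEPES pH 7.2, Mg/Mn, 10 μM ATP, 5% DMSO, 1 h at room temperature; variant uses 100 μM ATP, 30 nM biotin-(E4Y)10, 1 ng enzyme. PY20 acceptor/streptavidin donor signal versus 8-point concentration gives IC50.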

c-kit kinase, sequence (P10721 26-976): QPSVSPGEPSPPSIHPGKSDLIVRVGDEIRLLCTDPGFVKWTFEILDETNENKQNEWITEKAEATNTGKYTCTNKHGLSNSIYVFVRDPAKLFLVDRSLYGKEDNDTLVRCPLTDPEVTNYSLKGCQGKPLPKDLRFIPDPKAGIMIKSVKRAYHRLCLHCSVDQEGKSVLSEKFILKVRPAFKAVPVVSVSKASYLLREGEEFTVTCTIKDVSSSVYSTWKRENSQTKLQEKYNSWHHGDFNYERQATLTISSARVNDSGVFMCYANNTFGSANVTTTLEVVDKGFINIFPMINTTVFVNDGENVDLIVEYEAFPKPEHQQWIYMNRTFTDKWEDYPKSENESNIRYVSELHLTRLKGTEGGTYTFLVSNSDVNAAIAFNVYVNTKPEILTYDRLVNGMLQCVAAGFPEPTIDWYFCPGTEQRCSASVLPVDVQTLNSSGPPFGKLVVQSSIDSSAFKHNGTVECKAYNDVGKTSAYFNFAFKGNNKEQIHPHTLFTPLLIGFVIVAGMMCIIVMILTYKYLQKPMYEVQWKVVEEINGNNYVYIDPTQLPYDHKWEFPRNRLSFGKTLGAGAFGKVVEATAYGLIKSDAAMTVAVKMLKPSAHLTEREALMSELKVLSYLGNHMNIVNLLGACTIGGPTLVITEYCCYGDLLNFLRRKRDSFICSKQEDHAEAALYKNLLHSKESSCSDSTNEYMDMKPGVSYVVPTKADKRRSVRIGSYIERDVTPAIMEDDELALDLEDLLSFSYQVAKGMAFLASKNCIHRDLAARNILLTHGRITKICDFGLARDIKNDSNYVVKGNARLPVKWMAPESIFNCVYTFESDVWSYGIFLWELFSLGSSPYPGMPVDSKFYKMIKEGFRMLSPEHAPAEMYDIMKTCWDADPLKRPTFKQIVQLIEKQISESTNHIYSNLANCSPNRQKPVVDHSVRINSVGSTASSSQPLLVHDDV

Structure (SMILES) | IC50 [µM]
Cc1n[nH]c(C(=O)Nc2cnc3[nH]c(-c4ccnc(N5CCN(C(=O)CC#N)CC5)c4)cc3c2)c1C [P-2189, N-[2-[2-[4-(2-cyanoacetyl)piperazin-1-yl]-4-pyridyl]-1H-pyrrolo[2,3-b]pyridin-5-yl]-3,4-dimethyl-1H-pyrazole-5-carboxamide] | 0.0001 to 1
Cc1n[nH]c(C(=O)Nc2cnc3[nH]c(-c4ccc(F)cc4OC(F)F)cc3c2)c1C [P-2268, N-[2-[2-(difluoromethoxy)-4-fluoro-phenyl]-1H-pyrrolo[2,3-b]pyridin-5-yl]-3,4-dimethyl-1H-pyrazole-5-carboxamide] | 1 to 10
Cc1n[nH]c(C(=O)Nc2cnc3[nH]c(-c4cncc(C#N)c4)cc3c2)c1C [P-2270, N-[2-(5-cyano-3-pyridyl)-1H-pyrrolo[2,3-b]pyridin-5-yl]-3,4-dimethyl-1H-pyrazole-5-carboxamide] | 10 to 200
Cc1n[nH]c(C(=O)Nc2cnc3[nH]c(C4=CCOCC4)cc3c2)c1C [P-2271, N-[2-(3,6-dihydro-2H-pyran-4-yl)-1H-pyrrolo[2,3-b]pyridin-5-yl]-3,4-dimethyl-1H-pyrazole-5-carboxamide] | 0.0001 to 1
Cc1n[nH]c(C(=O)Nc2cnc3[nH]c(-c4cnccc4C(N)=O)cc3c2)c1C [P-2272, 3-[5-[(3,4-dimethyl-1H-pyrazole-5-carbonyl)amino]-1H-pyrrolo[2,3-b]pyridin-2-yl]pyridine-4-carboxamide] | 10 to 200
Cc1n[nH]c(C(=O)Nc2cnc3[nH]c(-c4cccc5c4OCC5)cc3c2)c1C [P-2273, N-[2-(2,3-dihydrobenzofuran-7-yl)-1H-pyrrolo[2,3-b]pyridin-5-yl]-3,4-dimethyl-H-pyrazole-5-carboxamide] | 10 to 200
Cc1n[nH]c(C(=O)Nc2cnc3[nH]c(-c4cccc(N5CCNCC5)c4)cc3c2)c1C [P-2274, 3,4-dimethyl-N-[2-(3-piperazin-1-ylphenyl)-1H-pyrrolo[2,3-b]pyridin-5-yl]-1H-pyrazole-5-carboxamide] | 0.0001 to 1
Cc1cc(Cl)ccc1-c1cc2cc(NC(=O)c3[nH]nc(C)c3C)cnc2[nH]1 [P-2277, N-[2-(4-chloro-2-methyl-phenyl)-1H-pyrrolo[2,3-b]pyridin-5-yl]-3,4-dimethyl-1H-pyrazole-5-carboxamide] | 10 to 200
Cc1n[nH]c(C(=O)Nc2cnc3[nH]c(-c4ccncc4Cl)cc3c2)c1C [P-2278, N-[2-(3-chloro-4-pyridyl)-H-pyrrolo[2,3-b]pyridin-5-yl]-3,4-dimethyl-1H-pyrazole-5-carboxamide] | 10 to 200
Cc1n[nH]c(C(=O)Nc2cnc3[nH]c(-c4ccc(F)nc4F)cc3c2)c1C [P-2280, N-[2-(2,6-difluoro-3-pyridyl)-1H-pyrrolo[2,3-b]pyridin-5-yl]-3,4-dimethyl-1H-pyrazole-5-carboxamide] | 10 to 200
Cc1n[nH]c(C(=O)Nc2cnc3[nH]c(-c4cccc5c4OC(F)(F)O5)cc3c2)c1C [P-2281, N-[2-(2,2-difluoro-1,3-benzodioxol-4-yl)-1H-pyrrolo[2,3-b]pyridin-5-yl]-3,4-dimethyl-1H-pyrazole-5-carboxamide] | 10 to 200
Cc1cc(-c2cc3cc(NC(=O)c4[nH]nc(C)c4C)cnc3[nH]2)cnc1C [P-2282, N-[2-(5,6-dimethyl-3-pyridyl)-1H-pyrrolo[2,3-b]pyridin-5-yl]-3,4-dimethyl-1H-pyrazole-5-carboxamide] | 1 to 10
COc1ccc(-c2cc3cc(NC(=O)c4[nH]nc(C)c4C)cnc3[nH]2)c(C)c1C [P-2284, N-[2-(4-methoxy-2,3-dimethyl-phenyl)-1H-pyrrolo[2,3-b]pyridin-5-yl]-3,4-dimethyl-1H-pyrazole-5-carboxamide] | 1 to 10
Cc1nn(C2CN(C(=O)OC(C)(C)C)C2)cc1-c1cc2cc(NC(=O)c3[nH]nc(C)c3C)cnc2[nH]1 [P-2285, tert-butyl 3-[4-[5-[(3,4-dimethyl-1H-pyrazole-5-carbonyl)amino]-1H-pyrrolo[2,3-b]pyridin-2-yl]-3-methyl-pyrazol-1-yl]azetidine-1-carboxylate] | 0.0001 to 1
Cc1nn(C2CNC2)cc1-c1cc2cc(NC(=O)c3[nH]nc(C)c3C)cnc2[nH]1 [P-2286, N-[2-[1-(azetidin-3-yl)-3-methyl-pyrazol-4-yl]-1H-pyrrolo[2,3-b]pyridin-5-yl]-3,4-dimethyl-1H-pyrazole-5-carboxamide] | 0.0001 to 1
O=C(Nc1cnc2[nH]c(-c3ccccc3)cc2c1)c1cccc2n[nH]cc12 [P-2289, N-(2-phenyl-1H-pyrrolo[2,3-b]pyridin-5-yl)-2H-indazole-4-carboxamide] | 0.0001 to 1
COC(=O)c1cccc(C(=O)Nc2cnc3[nH]c(-c4ccccc4)cc3c2)c1 [P-2290, methyl 3-[(2-phenyl-1H-pyrrolo[2,3-b]pyridin-5-yl)carbamoyl]benzoate] | 10 to 200
O=C(O)c1cccc(C(=O)Nc2cnc3[nH]c(-c4ccccc4)cc3c2)c1 [P-2291, 3-[(2-phenyl-1H-pyrrolo[2,3-b]pyridin-5-yl)carbamoyl]benzoic acid] | 10 to 200
Cc1n[nH]c(C(=O)Nc2cnc3[nH]c(-c4ccc(C(=O)O)c(F)c4)cc3c2)c1C [P-2292, 4-[5-[(3,4-dimethyl-1H-pyrazole-5-carbonyl)amino]-1H-pyrrolo[2,3-b]pyridin-2-yl]-2-fluoro-benzoic acid] | 0.0001 to 1
Cc1n[nH]c(C(=O)Nc2cnc3[nH]c(-c4cccc(CC(=O)O)c4)cc3c2)c1C [P-2293, 2-[3-[5-[(3,4-dimethyl-1H-pyrazole-5-carbonyl)amino]-1H-pyrrolo[2,3-b]pyridin-2-yl]phenyl]acetic acid] | 0.0001 to 1
Cc1n[nH]c(C(=O)Nc2cnc3[nH]c(-c4ccc(C5(C(=O)O)CC5)cc4)cc3c2)c1C [P-2294, 1-[4-[5-[(3,4-dimethyl-1H-pyrazole-5-carbonyl)amino]-1H-pyrrolo[2,3-b]pyridin-2-yl]phenyl]cyclopropanecarboxylic acid] | 0.0001 to 1
Cc1n[nH]c(C(=O)Nc2cnc3[nH]c(-c4ccc(CC(=O)O)cc4)cc3c2)c1C [P-2295, 2-[4-[5-[(3,4-dimethyl-1H-pyrazole-5-carbonyl)amino]-1H-pyrrolo[2,3-b]pyridin-2-yl]phenyl]acetic acid] | 0.0001 to 1
Cc1cc(-c2cc3cc(NC(=O)c4[nH]nc(C)c4C)cnc3[nH]2)ccc1C(=O)O [P-2296, 4-[5-[(3,4-dimethyl-1H-pyrazole-5-carbonyl)amino]-1H-pyrrolo[2,3-b]pyridin-2-yl]-2-methyl-benzoic acid] | 0.0001 to 1
Cc1n[nH]c(C(=O)Nc2cnc3[nH]c(-c4cccc(C(=O)O)c4C)cc3c2)c1C [P-2297, 3-[5-[(3,4-dimethyl-1H-pyrazole-5-carbonyl)amino]-1H-pyrrolo[2,3-b]pyridin-2-yl]-2-methyl-benzoic acid] | 0.0001 to 1
